Assay results: ChEMBL document CHEMBL1201862, “PubChem BioAssay data set” (2004)
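Exposure lasted 48 hours, with cells grown in 96-well plates and compounds tested at five concentrations. Abbreviation: GI50, concentration required for 50% inhibition of growth.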 The source made the active and inactive calls. Cut-off read from the data, not from the text of the source: active = GI50 up to about 1.1 µM and inactive = higher.

Assays:
Assay in all cases: NCI-60 cell line screen, 48 h
UACC-257 = test system: UACC-257
Malme-3M = test system: Malme-3M
RXF 393 = test system: RXF 393
M14 = test system: M14
MDA-MB-435 = test system: MDA-MB-435
HCT-15 = test system: HCT-15
SK-MEL-5 = test system: SK-MEL-5
MDA-MB-231 = test system: MDA-MB-231
786-0 = test system: 786-0
NCI-H460 = test system: NCI-H460
BT-549 = test system: BT-549
Hs-578T = test system: Hs-578T
MOLT-4 = test system: MOLT-4
NCI-H522 = test system: NCI-H522
A498 = test system: A498
SNB-19 = test system: SNB-19
ACHN = test system: ACHN
T47D = test system: T47D
IGROV-1 = test system: IGROV-1

| SMILES | GI50 (UACC-257) | GI50 (Malme-3M) | GI50 (RXF 393) | GI50 (M14) | GI50 (MDA-MB-435) | GI50 (HCT-15) | GI50 (SK-MEL-5) | GI50 (MDA-MB-231) | GI50 (786-0) | GI50 (NCI-H460) | GI50 (BT-549) | GI50 (Hs-578T) | GI50 (MOLT-4) | GI50 (NCI-H522) | GI50 (A498) | GI50 (SNB-19) | GI50 (ACHN) | GI50 (T47D) | GI50 (IGROV-1) |
| --- | --- | --- | --- | --- | --- | --- | --- | --- | --- | --- | --- | --- | --- | --- | --- | --- | --- | --- | --- |
| N#CC(C#N)=NNc1ccc2cn[nH]c2c1 | 20.4 µM (inactive) | 28.4 µM (inactive) | 26.6 µM (inactive) | 35.6 µM (inactive) | 34.3 µM (inactive) | 83.2 µM | 74.5 µM (inactive) | > 100 µM (inactive) | 43.6 µM (inactive) | 57.3 µM (inactive) | > 100 µM (inactive) | 24.8 µM (inactive) | 21.5 µM (inactive) | 12.2 µM (inactive) | > 100 µM (inactive) | > 100 µM (inactive) | 33.1 µM (inactive) | 35.7 µM (inactive) | > 100 µM (inactive) |
| Cc1occc1C(=S)Nc1ccc(Cl)c(C(=O)OC(C)C2CC2)c1 (stereo unspecified) | 30.3 µM (inactive) | 16.4 µM (inactive) | 20.4 µM (inactive) | 24.9 µM (inactive) | 24.8 µM (inactive) | 18.5 µM | 15.3 µM (inactive) | 17.4 µM (inactive) | 19.3 µM (inactive) | 35.7 µM (inactive) | 22.5 µM (inactive) | 27.7 µM (inactive) | 17.4 µM (inactive) | 14.4 µM (inactive) | 22.3 µM (inactive) | 17.3 µM (inactive) | 17.3 µM (inactive) | 19.1 µM (inactive) | 16 µM (inactive) |
| Nc1ccc(-c2nc3cc(F)ccc3s2)cc1Br | > 100 µM (inactive) | 33 µM (inactive) | 25.5 µM (inactive) | > 95.5 µM (inactive) | > 100 µM (inactive) | 0.144 µM | 33.1 µM (inactive) | 8.95 µM (inactive) | 59 µM (inactive) | 0.0458 µM (active) | 7.69 µM (inactive) | 36.7 µM (inactive) | > 100 µM (inactive) | > 42.8 µM (inactive) | 14.7 µM (inactive) | 53.3 µM (inactive) | 0.621 µM (active) | 0.038 µM (active) | < 0.01 µM (active) |
| NS(=O)(=O)c1c(O)c2ccccc2oc1=O | > 100 µM (inactive) | > 100 µM (inactive) | > 100 µM (inactive) | > 100 µM (inactive) | > 100 µM (inactive) |  | > 100 µM (inactive) | > 100 µM (inactive) | > 100 µM (inactive) | > 100 µM (inactive) | > 100 µM (inactive) | > 100 µM (inactive) | > 100 µM (inactive) | > 100 µM (inactive) | > 100 µM (inactive) | > 100 µM (inactive) | > 100 µM (inactive) | > 100 µM (inactive) | > 100 µM (inactive) |
| NS(=O)(=O)c1ccc(/N=N/c2nc3nc(O)nc(O)c3[nH]2)cc1 | > 100 µM (inactive) | > 100 µM (inactive) | > 100 µM (inactive) | > 100 µM (inactive) | > 100 µM (inactive) | > 100 µM | > 100 µM (inactive) | > 100 µM (inactive) | > 100 µM (inactive) | > 100 µM (inactive) | > 100 µM (inactive) | > 100 µM (inactive) |  | > 100 µM (inactive) | > 100 µM (inactive) | > 100 µM (inactive) | > 100 µM (inactive) | > 100 µM (inactive) | > 100 µM (inactive) |
| Cn1c(=O)n2c(=O)n(C)c(=O)n2c1=O | > 100 µM (inactive) | > 100 µM (inactive) | > 100 µM (inactive) | > 100 µM (inactive) | > 100 µM (inactive) | > 100 µM | > 100 µM (inactive) | > 100 µM (inactive) | > 100 µM (inactive) | > 100 µM (inactive) | > 100 µM (inactive) | > 100 µM (inactive) | > 100 µM (inactive) | > 100 µM (inactive) | > 100 µM (inactive) | > 100 µM (inactive) |  | > 100 µM (inactive) | > 100 µM (inactive) |
| C[C@@H](NC(=O)Nc1cccc(C(=O)Nc2cc(C(C)(C)C)ccc2C(=O)O)n1)c1ccccc1 |  | 46.5 µM (inactive) | 21.5 µM (inactive) | 31 µM (inactive) | 37.3 µM (inactive) | 44.2 µM | 30.1 µM (inactive) | 23.4 µM (inactive) | 37.5 µM (inactive) | 52.1 µM (inactive) | 37 µM (inactive) | 40.4 µM (inactive) | 38 µM (inactive) | 40.8 µM (inactive) | 64.1 µM (inactive) | 47 µM (inactive) | 35.2 µM (inactive) | 46 µM (inactive) | 37.9 µM (inactive) |
| NC(=O)SCC(=O)Nc1ccc2cccc3c2c1CC3 | 21.1 µM (inactive) | > 100 µM (inactive) | 26 µM (inactive) | 21.8 µM (inactive) | 17.4 µM (inactive) | 16.6 µM | 26.8 µM (inactive) | 6.76 µM (inactive) | 18.9 µM (inactive) |  | 16.2 µM (inactive) | 47.6 µM (inactive) | 19.8 µM (inactive) | > 100 µM (inactive) | 91 µM (inactive) | 99.3 µM (inactive) | 22.8 µM (inactive) | 21.9 µM (inactive) | > 100 µM (inactive) |
| NCCNc1ncnc2ccc(Cl)cc12 | 36 µM (inactive) | > 100 µM (inactive) | > 100 µM (inactive) | > 100 µM (inactive) | > 100 µM (inactive) | > 100 µM | > 100 µM (inactive) | 93.1 µM (inactive) | > 100 µM (inactive) | 32.8 µM (inactive) | > 100 µM (inactive) | > 100 µM (inactive) |  | 57.7 µM (inactive) | 37.9 µM (inactive) | > 100 µM (inactive) | 66.4 µM (inactive) | > 100 µM (inactive) | 49.9 µM (inactive) |
| O=C1/C(=C\c2cccc(Oc3ccccc3)c2)SC(c2ccccc2)N1c1ccc(Cl)cc1 (stereo unspecified) | 41.9 µM (inactive) | 45.6 µM (inactive) | 19.5 µM (inactive) | 3.17 µM (inactive) | 2.24 µM (inactive) | 7.55 µM | 4.79 µM (inactive) | > 64.6 µM (inactive) | 52.4 µM (inactive) | 24.5 µM (inactive) | 28.2 µM (inactive) | > 67.9 µM (inactive) | 20.4 µM (inactive) | 10.2 µM (inactive) | > 95.9 µM (inactive) | 59.4 µM (inactive) | 20.2 µM (inactive) | 5.37 µM (inactive) |  |
| CSc1nc(SC)c2c(C)c(Br)[nH]c2n1 |  | > 100 µM (inactive) | > 100 µM (inactive) | > 100 µM (inactive) | > 100 µM (inactive) | > 100 µM | > 100 µM (inactive) | > 100 µM (inactive) | > 100 µM (inactive) | > 100 µM (inactive) | > 100 µM (inactive) | > 100 µM (inactive) | > 100 µM (inactive) | > 100 µM (inactive) | > 100 µM (inactive) | > 100 µM (inactive) | > 100 µM (inactive) | > 100 µM (inactive) | > 100 µM (inactive) |
